Results from PubChem BioAssay AID2060888 (Molecular Pharmacology Branch, DTP, NCI, 2025).

Tested on: 695427-040-R-J1-PDC complex spheroid viability
Assay: Anticancer human tumor 695427-040-R-J1-PDC patient-derived colon adenocarcinoma cell line growth inhibition [RAS]
Conditions: for viability, T/C: stronger effect = lower value
Outline: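 Agents were tested in combination matrices in half-log decrements from a top concentration at or near clinical Cmax (10 microM if undetermined). Targets were multi-cell spheroids of tumour lines plus HUVEC and MSC stromal cells.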
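Also: viability read after seven days of drug exposure.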
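For viability, T/C in this document: 100% = DMSO vehicle control viability.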

CC(C)NCC(C(=O)N1CCN(c2ncnc3c2C(C)CC3O)CC1)c1ccc(Cl)cc1 (stereo unspecified) + C#Cc1c(F)ccc2cc(O)cc(-c3ncc4c(N5CC6CCC(C5)N6)nc(OCC56CCCN5CC(F)C6)nc4c3F)c12
IC50 (curve of first compound, second compound 0.0316 µM): > 10000 nM | IC50 (curve of first compound, second compound 0.1 µM): > 10000 nM | IC50 (curve of first compound, second compound 0.316 µM): > 10000 nM | IC50 (curve of first compound, second compound 1 µM): > 10000 nM | IC50 (curve of first compound, second compound 3.16 µM): 773 nM | IC50 (curve of first compound, second compound 10 µM): < 31.6 nM | viability, T/C (second compound 0.0316 µM, first compound 0.0316 µM): 111% | viability, T/C (second compound 0.0316 µM, first compound 0.1 µM): 92.8% | viability, T/C (second compound 0.0316 µM, first compound 0.316 µM): 89.6% | viability, T/C (second compound 0.0316 µM, first compound 1 µM): 84% | viability, T/C (second compound 0.0316 µM, first compound 3.16 µM): 89.6% | viability, T/C (second compound 0.0316 µM, first compound 10 µM): 103% | viability, T/C (second compound 0.1 µM, first compound 0.0316 µM): 92.6% | viability, T/C (second compound 0.1 µM, first compound 0.1 µM): 78.7% | viability, T/C (second compound 0.1 µM, first compound 0.316 µM): 83.7% | viability, T/C (second compound 0.1 µM, first compound 1 µM): 71% | viability, T/C (second compound 0.1 µM, first compound 3.16 µM): 94.8% | viability, T/C (second compound 0.1 µM, first compound 10 µM): 92.3% | viability, T/C (second compound 0.316 µM, first compound 0.0316 µM): 83.7% | viability, T/C (second compound 0.316 µM, first compound 0.1 µM): 85.8% | viability, T/C (second compound 0.316 µM, first compound 0.316 µM): 82.7% | viability, T/C (second compound 0.316 µM, first compound 1 µM): 73.3% | viability, T/C (second compound 0.316 µM, first compound 3.16 µM): 76.6% | viability, T/C (second compound 0.316 µM, first compound 10 µM): 82.2% | viability, T/C (second compound 1 µM, first compound 0.0316 µM): 66.2% | viability, T/C (second compound 1 µM, first compound 0.1 µM): 60.2% | viability, T/C (second compound 1 µM, first compound 0.316 µM): 60.3% | viability, T/C (second compound 1 µM, first compound 1 µM): 60.9% | viability, T/C (second compound 1 µM, first compound 3.16 µM): 67.2% | viability, T/C (second compound 1 µM, first compound 10 µM): 60.3% | viability, T/C (second compound 3.16 µM, first compound 0.0316 µM): 59.6% | viability, T/C (second compound 3.16 µM, first compound 0.1 µM): 65.5% | viability, T/C (second compound 3.16 µM, first compound 0.316 µM): 48.7% | viability, T/C (second compound 3.16 µM, first compound 1 µM): 46.3% | viability, T/C (second compound 3.16 µM, first compound 3.16 µM): 48.5% | viability, T/C (second compound 3.16 µM, first compound 10 µM): 39.2% | viability, T/C (second compound 10 µM, first compound 0.0316 µM): 33.6% | viability, T/C (second compound 10 µM, first compound 0.1 µM): 44.1% | viability, T/C (second compound 10 µM, first compound 0.316 µM): 34.4% | viability, T/C (second compound 10 µM, first compound 1 µM): 32.3% | viability, T/C (second compound 10 µM, first compound 3.16 µM): 26.1% | viability, T/C (second compound 10 µM, first compound 10 µM): 18.7%

C#Cc1c(F)ccc2cc(O)cc(-c3ncc4c(N5CC6CCC(C5)N6)nc(OCC56CCCN5CC(F)C6)nc4c3F)c12 (stereo unspecified)
viability, T/C (compound 0.0316 µM): 99.3% [middle of 8 runs] | viability, T/C (compound 0.1 µM): 95.3% [middle of 8 runs] | viability, T/C (compound 0.316 µM): 89.5% [middle of 8 runs] | viability, T/C (compound 1 µM): 73.6% [middle of 8 runs] | viability, T/C (compound 3.16 µM): 62.1% [middle of 8 runs] | viability, T/C (compound 10 µM): 42.7% [middle of 8 runs] | IC50 (compound alone, run of 06/10/2024): 6.3 µM [middle of 8 runs]

C=CC(=O)Nc1cc(Nc2nccc(-c3cn(C)c4ccccc34)n2)c(OC)cc1N(C)CCN(C)C + CCn1c(-c2cc(N3CCN(C)CC3)cnc2C(C)OC)c2c3cc(ccc31)-c1csc(n1)CC(NC(=O)C1CC1C)C(=O)N1CCCC(N1)C(=O)OCC(C)(C)C2
IC50 (curve of first compound, second compound 0.000949 µM): 523 nM | IC50 (curve of first compound, second compound 0.003 µM): 363 nM | IC50 (curve of first compound, second compound 0.00949 µM): 147 nM | IC50 (curve of first compound, second compound 0.03 µM): 44.3 nM | IC50 (curve of first compound, second compound 0.0949 µM): < 3.16 nM | IC50 (curve of first compound, second compound 0.3 µM): < 3.16 nM | viability, T/C (second compound 0.000949 µM, first compound 0.00316 µM): 104% | viability, T/C (second compound 0.000949 µM, first compound 0.01 µM): 91.1% | viability, T/C (second compound 0.000949 µM, first compound 0.0316 µM): 75.1% | viability, T/C (second compound 0.000949 µM, first compound 0.1 µM): 82.8% | viability, T/C (second compound 0.000949 µM, first compound 0.316 µM): 58.1% | viability, T/C (second compound 0.000949 µM, first compound 1 µM): 37.1% | viability, T/C (second compound 0.003 µM, first compound 0.00316 µM): 103% | viability, T/C (second compound 0.003 µM, first compound 0.01 µM): 88.7% | viability, T/C (second compound 0.003 µM, first compound 0.0316 µM): 68% | viability, T/C (second compound 0.003 µM, first compound 0.1 µM): 74% | viability, T/C (second compound 0.003 µM, first compound 0.316 µM): 52.3% | viability, T/C (second compound 0.003 µM, first compound 1 µM): 35.9% | viability, T/C (second compound 0.00949 µM, first compound 0.00316 µM): 91.7% | viability, T/C (second compound 0.00949 µM, first compound 0.01 µM): 78.3% | viability, T/C (second compound 0.00949 µM, first compound 0.0316 µM): 68.9% | viability, T/C (second compound 0.00949 µM, first compound 0.1 µM): 54.4% | viability, T/C (second compound 0.00949 µM, first compound 0.316 µM): 41.5% | viability, T/C (second compound 0.00949 µM, first compound 1 µM): 24.6% | viability, T/C (second compound 0.03 µM, first compound 0.00316 µM): 58.9% | viability, T/C (second compound 0.03 µM, first compound 0.01 µM): 60.1% | viability, T/C (second compound 0.03 µM, first compound 0.0316 µM): 51.3% | viability, T/C (second compound 0.03 µM, first compound 0.1 µM): 42.8% | viability, T/C (second compound 0.03 µM, first compound 0.316 µM): 36.9% | viability, T/C (second compound 0.03 µM, first compound 1 µM): 21.2% | viability, T/C (second compound 0.0949 µM, first compound 0.00316 µM): 46.6% | viability, T/C (second compound 0.0949 µM, first compound 0.01 µM): 45.7% | viability, T/C (second compound 0.0949 µM, first compound 0.0316 µM): 34.2% | viability, T/C (second compound 0.0949 µM, first compound 0.1 µM): 36.9% | viability, T/C (second compound 0.0949 µM, first compound 0.316 µM): 24.4% | viability, T/C (second compound 0.0949 µM, first compound 1 µM): 17.3% | viability, T/C (second compound 0.3 µM, first compound 0.00316 µM): 33.3% | viability, T/C (second compound 0.3 µM, first compound 0.01 µM): 34.9% | viability, T/C (second compound 0.3 µM, first compound 0.0316 µM): 29.7% | viability, T/C (second compound 0.3 µM, first compound 0.1 µM): 30.1% | viability, T/C (second compound 0.3 µM, first compound 0.316 µM): 26.9% | viability, T/C (second compound 0.3 µM, first compound 1 µM): 16.1%
